Results on one compound are retold here after publication PMC4710522, “A Novel Triazolopyridine-Based Spleen Tyrosine Kinase Inhibitor That Arrests Joint Inflammation” (PLoS ONE, 2016).

SMILES strings stand for the structures.

The target in one test is Syk (Homo sapiens, UniProt P43405). As to the kind of experiment: Syk kinase mode of inhibition studies (Caliper LC3000). Format: biochemical. As to the method: (§1) Syk kinase mode of inhibition studies, including parameters described in Fig 1, were conducted on the LC3000 platform by Caliper Life Sciences (Hopkinton, MA) according to standard protocols developed by the supplier. […] Non-kinase enzyme assays and GPCR, ion channel, and transporter binding assays were run by CEREP (France). Non-GLP manual patch clamp hERG assays were run by ChanTest (Cleveland, Ohio). Vivid® Assay kits (Life Technologies) were used to measure the cytochrome P450 inhibition of the compound against CYP3A, CYP2C9, CYP2C19, CYP2D6, and CYP1A2, as described.

Another test has as its target T1, human KDR in Hek cells (Homo sapiens, UniProt P35968).
T1 construct: host or cells: HEK293
The experiment in a line: KDR cellular selectivity assay (VEGF-induced KDR autophosphorylation). Type of test: cell-based.

The target of another test is T2, MEK2_h (Homo sapiens, UniProt P36507).
T2 construct: purchased Life Technologies (Invitrogen) SelectScreen, Z'-LYTE / Adapta
T2 sequence (P36507 whole entry): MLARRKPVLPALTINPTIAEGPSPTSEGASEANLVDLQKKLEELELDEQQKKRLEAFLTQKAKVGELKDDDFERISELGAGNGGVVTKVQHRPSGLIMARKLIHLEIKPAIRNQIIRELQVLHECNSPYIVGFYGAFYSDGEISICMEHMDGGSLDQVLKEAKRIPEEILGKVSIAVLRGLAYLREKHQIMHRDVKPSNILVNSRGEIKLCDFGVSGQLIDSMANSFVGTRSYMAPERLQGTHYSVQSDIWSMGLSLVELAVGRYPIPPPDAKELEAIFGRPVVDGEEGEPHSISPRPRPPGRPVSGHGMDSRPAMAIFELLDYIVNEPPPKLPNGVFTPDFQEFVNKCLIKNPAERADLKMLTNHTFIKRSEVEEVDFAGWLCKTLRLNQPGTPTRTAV
As to the kind of experiment: SelectScreen kinase assay. Format: biochemical. The conditions noted are these: 100 µM ATP, read-out: % control.

The target of a further test is T3, FGFR4_h (Homo sapiens, UniProt P22455).
T3 construct: purchased Life Technologies (Invitrogen) SelectScreen, Z'-LYTE / Adapta
T3 sequence (P22455 22-802): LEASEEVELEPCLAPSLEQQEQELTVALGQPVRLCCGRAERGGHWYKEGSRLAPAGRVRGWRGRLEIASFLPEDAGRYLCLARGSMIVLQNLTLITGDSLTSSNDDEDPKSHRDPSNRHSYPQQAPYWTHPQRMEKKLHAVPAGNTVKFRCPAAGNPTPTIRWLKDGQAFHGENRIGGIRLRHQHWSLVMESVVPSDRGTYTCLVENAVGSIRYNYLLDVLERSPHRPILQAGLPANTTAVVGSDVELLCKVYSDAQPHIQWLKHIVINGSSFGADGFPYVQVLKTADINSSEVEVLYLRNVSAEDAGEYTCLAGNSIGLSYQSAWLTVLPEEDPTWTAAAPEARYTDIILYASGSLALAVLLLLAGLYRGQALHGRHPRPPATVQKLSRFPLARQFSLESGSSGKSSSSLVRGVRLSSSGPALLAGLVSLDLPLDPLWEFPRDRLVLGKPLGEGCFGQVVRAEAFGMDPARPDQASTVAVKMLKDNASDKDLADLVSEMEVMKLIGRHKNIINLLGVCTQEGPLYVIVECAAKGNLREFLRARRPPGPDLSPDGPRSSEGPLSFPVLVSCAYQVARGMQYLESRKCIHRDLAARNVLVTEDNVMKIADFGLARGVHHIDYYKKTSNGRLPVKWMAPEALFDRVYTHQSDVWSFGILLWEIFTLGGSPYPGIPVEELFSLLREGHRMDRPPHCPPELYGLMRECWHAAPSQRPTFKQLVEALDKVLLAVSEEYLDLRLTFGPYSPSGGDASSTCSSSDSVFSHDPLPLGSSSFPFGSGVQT
As to the kind of experiment: SelectScreen kinase assay. Type of test: biochemical. The settings on record: KM ATP, read-out: % control.

For the next test, the system named is AMPK_r. The experiment in a line: SelectScreen kinase assay. Format: biochemical, rat. The settings on record: 3 µM, KM ATP. As to the method: as §1
Kinase activity was measured using either the Z’-Lyte® or the Adapta® protocols as part of the SelectScreen™ profiling service offered at Life Technologies (Grand Island, NY). For the single point measurements (Part A), CC-509 was kept constant at 3 µM while ATP concentrations [ATP] used were at the KM for ATP (KM ATP) for that specific enyzme, at 10 or 100 µM ATP (10 ATP or 100 ATP, respectively), as indicated. Values expressed as percent control (% control) relative to DMSO-only wells (uninhibited, 100%).
Kinase activity was measured using either the Z’-Lyte® or the Adapta® protocols as part of the SelectScreen™ profiling service offered at Life Technologies (Grand Island, NY). […] Values expressed as percent control (% control) relative to DMSO-only wells (uninhibited, 100%).

For test [1], the system named is rat collagen-induced arthritis model. The experiment in a line: rat collagen-induced arthritis (CIA) model, paw swelling. Format: in vivo. The settings on record: for inhibition of paw swelling: 8 days. Here is the method:
Female Lewis rats (150 – 170g; Charles River Laboratories) were house standard shoebox cages, fed Harlan-Tekald diet and water ad libitum and maintained on a 12h light/dark cycle. For induction of arthritis rats were anesthetized with isofluorane and their entire dorsal area shaved. Rats were injected (intradermal) with 100 μl of equal volumes of collagen (Chrondrex, Redmond, WA) and IFA (Sigma Chemicals, St. Louis, MO) emulsion in 10 sites across the dorsal region. At disease onset 11 days following immunization animals were randomized into groups based on their ankle measurements and test article administration was initiated. Rats were dosed orally with vehicle (20% Captisol®), Indomethacin (Sigma Chemicals, St. Louis, MO, 2mg/kg) or CC-509 (15, 25mg/kg QD or 15mg/kg BID) in a dose volume of 5ml/kg. […] On the last day of the study animals were split into 2 cohorts and bleed twice via tail bleed under isofluorane anesthesia and a third terminal bleed following CO2 asphyxiation to obtain a time course of plasma compound exposure at 30minutes, 1, 2, 4, 8 and 24h after the last dose of CC-509.
For the TEL-Syk assay, the intensity values for the 700 and 800 channel were exported as text files in ActivityBase (IDBS, Guildford, UK) to derive the ratios that reflect kinase activity. For LAD2 experiments, enzyme activity values were exported as text files into ActivityBase to calculate “percent release” according to the formula: 100* supernatant OD405/ (supernatant OD405 + (pellet OD405*pellet dilution factor)). For the basophil and B-cells assays, flow cytometry data was exported from the FACS Array and processed using FloJo software package (TreeStar, Inc., Ashland, Oregon). For the JAK2 HEL and Ramos NFAT β-lactamase assays, the fluorescence values obtained at 460 nm and 530 nm were exported into ActivityBase to calculate response ratios. For the neutrophil, macrophage, KDR, and JAK1/3 assays, raw values were exported into ActivityBase to calculate percent inhibition. All IC50 calculations were generated using XLfit (IDBS, Guildford, UK) algorithm 205 within Excel. For PCA, the OD from the saline injected site was subtracted from the OD from the anti-DNP IgE injected site. Evans blue dye extravasation was expressed as mean ± SEM and % inhibition for the test article groups was normalized to the cromolyn positive control. For the CIA model paw measurements (left and right ankle diameter) were taken for each individual animal and averaged. The mean data from each group was plotted and either the AUC(day 11–18) or % inhibition on day 18 was calculated. Data is expressed as mean ± SEM of each group with n = 6–12. Statistical analysis was performed with Prism Graphpad using one-way ANOVA followed by Dunnett’s comparison using the vehicle group as the control or for measurements over time a 2 way ANOVA followed by a Dunnett’s multiple comparison test. Statistical significance was deemed as * = p<0.05, **p<0.01, ***p<0.001 and p<0.0001.

T1 sequence (P35968 20-1356): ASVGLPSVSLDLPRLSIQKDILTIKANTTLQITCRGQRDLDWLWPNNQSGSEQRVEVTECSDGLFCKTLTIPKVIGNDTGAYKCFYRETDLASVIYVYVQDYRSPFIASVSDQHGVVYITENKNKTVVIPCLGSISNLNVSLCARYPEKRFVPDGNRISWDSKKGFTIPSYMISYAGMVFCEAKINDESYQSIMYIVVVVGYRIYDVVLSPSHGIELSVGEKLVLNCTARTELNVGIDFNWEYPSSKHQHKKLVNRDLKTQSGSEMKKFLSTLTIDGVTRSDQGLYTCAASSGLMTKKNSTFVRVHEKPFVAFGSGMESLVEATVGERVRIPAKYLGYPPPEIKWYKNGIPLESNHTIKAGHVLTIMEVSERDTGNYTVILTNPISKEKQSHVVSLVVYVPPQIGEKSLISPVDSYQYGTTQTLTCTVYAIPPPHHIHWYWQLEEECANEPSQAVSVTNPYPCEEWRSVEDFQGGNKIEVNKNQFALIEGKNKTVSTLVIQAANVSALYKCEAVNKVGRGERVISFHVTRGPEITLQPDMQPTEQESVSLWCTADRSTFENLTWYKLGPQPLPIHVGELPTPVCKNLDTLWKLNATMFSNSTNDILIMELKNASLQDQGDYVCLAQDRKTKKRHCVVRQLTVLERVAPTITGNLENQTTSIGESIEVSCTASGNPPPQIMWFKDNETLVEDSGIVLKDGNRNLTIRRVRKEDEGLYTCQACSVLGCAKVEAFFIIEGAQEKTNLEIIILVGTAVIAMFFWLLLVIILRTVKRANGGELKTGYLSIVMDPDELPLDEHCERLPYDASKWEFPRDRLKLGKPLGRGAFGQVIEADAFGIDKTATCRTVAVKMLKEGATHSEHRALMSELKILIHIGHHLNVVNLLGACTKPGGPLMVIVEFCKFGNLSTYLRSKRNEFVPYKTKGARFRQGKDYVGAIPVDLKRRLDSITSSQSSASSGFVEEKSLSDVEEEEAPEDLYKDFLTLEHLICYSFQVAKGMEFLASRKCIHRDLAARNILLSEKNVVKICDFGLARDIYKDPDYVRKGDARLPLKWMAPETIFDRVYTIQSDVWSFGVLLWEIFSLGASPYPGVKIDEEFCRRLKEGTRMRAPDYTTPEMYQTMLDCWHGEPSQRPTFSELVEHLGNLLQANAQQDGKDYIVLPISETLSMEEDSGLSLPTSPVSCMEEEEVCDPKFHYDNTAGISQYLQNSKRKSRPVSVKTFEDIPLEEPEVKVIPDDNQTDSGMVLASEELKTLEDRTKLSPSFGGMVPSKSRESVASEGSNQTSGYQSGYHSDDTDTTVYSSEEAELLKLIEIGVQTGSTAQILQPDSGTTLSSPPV
Protocol for human KDR in Hek cells: HEK KDR cells were plated on 96-well flat bottom plates for 16 hours in a tissue culture incubator. […] Briefly, cells on plates were lysed with Mesoscale lysis buffer (containing phosphatase/ proteinase inhibitors and 0.05% SDS), frozen at -80°C for 2 hours, and then placed on an orbital shaker at 4°C for 16 hours. Cell lysate was transferred to a blocked phopsho-KDR plate, incubated at room temperature for 2 hours, washed twice, and blotted dry. The detection antibody was added to all wells on the plate, incubated for 2 hours at room temperature on an orbital shaker, and plate was washed three times. Diluted Mesoscale detection solution was added to each well and the plates were read on the Sector Imager instrument (Mesoscale, Gaithersberg, MD).

One may read the Ki as a dissociation constant, usually derived from enzyme kinetics or from competition with a known ligand. As usually defined, the IC50 is the concentration needed to halve the response being measured. In general, ED50 refers to the dose at which the effect has come halfway, by size or by number of responders. Compound `c1cc(CC2CCOCC2)n2nc(Nc3ccc4c(NC5CCOCC5)n[nH]c4c3)nc2c1` [CC-509, [3-(2H-3,4,5,6-tetrahydropyran-4-ylamino)(1H-indazol-6-yl)][5-(2H-3,4,5,6-tetrahydropyran-4-ylmethyl)(2H-1,2,4-triazolo[1,5-a]pyridin-2-yl)]amine] gave a Ki at Syk of 0.018 µM. On Syk (based on enzyme kinetics), the “mode of inhibition with respect to the Syk ATP binding site” value is recorded as “mixed competitive inhibitor”. This compound also gave an IC50 on human KDR in Hek cells (Hek cells) of 7.43 ± 3.36 µM. The “fold difference in potency between R406 and CC-509, KDR cellular assay” value at human KDR in Hek cells (R406 more potent) turned out to be 10 fold. Moreover, the remaining activity at 3 µM at MEK2_h worked out at 73%; at FGFR4_h it was 68%. Besides, in the test on AMPK_r, the “% control” value is recorded as 84%. In addition, the “inhibition of paw swelling” value in test [1] (15 mg/kg b.i.d. oral, p<0.001) is given as 72%; in test [1] (15 mg/kg q.d. oral, not significant), 32%; in test [1] (25 mg/kg q.d. oral, p<0.0001), 74%. Also, the ED50 in test [1] (rat CIA model) was approximately 10 mg/kg.
